8 molecules from patent US4221919A, “Antiinflammatory substituted phenylacetic acids” (SPOFA, United Pharmaceutical Works, priority 1974, dated 1980) can be followed below.

Data set [1] is described as follows: orientative test for oral acute toxicity in female mice. Particulars: mouse, in vivo. On the procedure:
(§1) As experimental models of inflammation, serving for testing the antiinflammatory activity, there were used the method of kaolin-induced edema of rat hind limb (Hillebrecht J.: Arzneim-Forsch. 9, p. 625, 1959). Kaolin edema of rat hind limb was induced by subplantar injection of 10% kaolin suspension dosed 0.1 ml per animal. The substances tested were administered once, one hour before the injection of kaolin, by gavage with the aid of a metallic gastric sound in the form of aqueous suspension with gum acacia added, in volumes of 1 ml/100 g body weight, equivalent to doses of 25 and 100 mg/kg. The edema of the right hind limb was measured volumetrically on a Volumometer Ugo Basile at hours 1; 1.5; 3; 4.5 and 6 after injection of kaolin. Statistical evaluation was always made in comparison with an untreated control group, and the efficacy of each compound was expressed in percent inhibition of inflammation. Experimental animals: female rats, Wistar strain, Konarovice breed, weighing 130-150 g, experimental groups of 6 animals each. Pelleted diet and drinking water were served ad libitum. This phase of limb edema induced by injection of kaolin suspension represents an acute phase of inflammatory reaction. In addition, orientative tests for oral acute toxicity were carried out with the compounds tested in female mice, S strain, Konarovice breed, weighing 16-20 g. Each compound was administered once by gavage, dosed 1 g/kg, in the form of aqueous suspensions with gum acacia added. Experimental groups of 5 animals each were employed. The deaths were checked for 1 week after administration.

In data set [2] the test system is kaolin-induced edema of rat hind limb. Briefly: kaolin-induced edema of rat hind limb (antiinflammatory activity, gavage). Particulars: po, 1 h, by gavage, once, one hour before kaolin injection, vs untreated control group, footnotes mark + statistically significant, n not statistically significant. Type of data set: in vivo, rat (Wistar strain, Konarovice breed, female). On the procedure: as §1

[3] abbreviates: oral (gavage), single dose 1 g/kg, deaths checked for 1 week, read-out: LD50 oral mice.

Read-outs that look alike come from different tables or passages of the source. A value given as a limit tells only on which side of the number the result lay.

In the case of `O=C(O)Cc1ccc(OCc2ccc(Cl)cc2)c(Cl)c1` [3-Chloro-4-(4'-chlorobenzyloxy) phenylacetic acid], the 50% lethal dose (LD50) at 168 h in data set [1] (setting [3]) is over 1000 mg/kg. Also, the inhibition in vivo at 25 mg/kg in data set [2] stood at 28%.

Regarding `O=C(O)Cc1ccc(OCc2ccccc2)c(Cl)c1` [3-Chloro-4-benzyloxyphenylacetic acid, 3-chloro-4-benzyloxyphenylacetic acid], in data set [1] (setting [3]), the LD50 at 168 h was over 1000 mg/kg. For the same molecule, the inhibition in vivo at 25 mg/kg in data set [2] amounted to 39%. As to `COc1ccc(COc2ccc(CC(=O)O)cc2Cl)cc1Cl` [3-chloro-4-(3'-chloro-4'-methoxybenzyloxy) phenylacetic acid], in data set [1] (setting [3]), the 50% lethal dose (LD50) at 168 h is over 1000 mg/kg. Besides, the inhibition in vivo at 25 mg/kg in data set [2] came to 17%. Turning to `CC(C)Oc1ccc(COc2ccc(CC(=O)O)cc2Cl)cc1` [3-chloro-4-(4'-isopropoxybenzyloxy) phenylacetic acid], the 50% lethal dose (LD50) at 168 h in data set [1] (setting [3]) is under 1000 mg/kg. With `CC(C(=O)O)c1ccc(OCc2ccccc2)c(Cl)c1` (stereo not drawn) [α-(3-Chloro-4-benzyloxyphenyl)-propionic acid, reference compound], the LD50 at 168 h in data set [1] (setting [3]) came out at 1000 mg/kg. Further, in data set [2], the inhibition in vivo at 25 mg/kg worked out at 14%. On to `COc1ccc(COc2ccc(C(C)C(=O)O)cc2Cl)cc1Cl` (stereo not drawn) [α-[3-Chloro-4-(3'-chloro-4'-methoxybenzyloxy)phenyl] propionic acid, reference compound], for which the 50% lethal dose (LD50) at 168 h in data set [1] (setting [3]) is under 1000 mg/kg. `CC(C(=O)O)c1ccc(OCc2ccc(Cl)cc2)c(Cl)c1` (stereo not drawn) [α-[3-Chloro-4-(4'-chlorobenzyloxy)-phenyl] propionic acid, reference compound] yielded a median lethal dose (LD50) at 168 h in data set [1] (po) of over 1000 mg/kg. Besides, the inhibition in vivo at 25 mg/kg in data set [2] was 25%.

Take `CC(C)Oc1ccc(COc2ccc(C(C)C(=O)O)cc2Cl)cc1` (stereo not drawn) [α-[3-Chloro-4-(4'-isopropoxybenzyloxy)phenyl] propionic acid, reference compound]: the 50% lethal dose (LD50) at 168 h in data set [1] (setting [3]) is under 1000 mg/kg.

What is called LD50 is the dose at which mortality reaches 50%. What is called inhibition in vivo is the relative decrease from the control value, in per cent.
